Results reported in patent publication US6737383B1, “Herbicidal oxadiazolidines” (priority 1999, dated 2004).

Tests used:
[1] = tested on: bedstraw; experiment: Test B pre/postemergence bedstraw; format: in vivo, Galium aparine; conditions: scale of 0 to 10 where 0 is no effect and 10 is complete control
Procedure, shortened: (§1)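 Herbicidal effect was estimated by eye on a ten-point control scale after plants spent twelve to sixteen days in a greenhouse following soil or foliar treatment. Foliar sprays targeted plants at one to four leaves; all doses were formulated in a non-phytotoxic solvent with surfactant.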

[2] = tested on: blackgrass; experiment: Test B pre/postemergence blackgrass; format: in vivo, Alopecurus myosuroides
Procedure, shortened: as §1

[3] = tested on: surinam grass; experiment: Test B pre/postemergence surinam grass; format: in vivo, Brachiaria decumbens
Procedure, shortened: as §1

[4] = tested on: cocklebur; experiment: Test B pre/postemergence cocklebur; format: in vivo, Xanthium strumarium
Procedure, shortened: as §1

[5] = tested on: corn; experiment: Test B pre/postemergence corn; format: in vivo, Zea mays
Procedure, shortened: as §1

[6] = tested on: crabgrass; experiment: Test B pre/postemergence crabgrass; format: in vivo, Digitaria sanguinalis
Procedure, shortened: as §1

[7] = tested on: giant foxtail; experiment: Test B pre/postemergence giant foxtail; format: in vivo, Setaria faberii
Procedure, shortened: as §1

[8] = tested on: morningglory; experiment: Test B pre/postemergence morningglory; format: in vivo, Ipomoea hederacea
Procedure, shortened: as §1

[9] = tested on: pigweed; experiment: Test B pre/postemergence pigweed; format: in vivo, Amaranthus retroflexus
Procedure, shortened: as §1

[10] = tested on: rape; experiment: Test B pre/postemergence rape; format: in vivo, Brassica napus
Procedure, shortened: as §1

[11] = tested on: soybean; experiment: Test B pre/postemergence soybean; format: in vivo, Glycine max
Procedure, shortened: as §1

[12] = tested on: sugar beet; experiment: Test B pre/postemergence sugar beet; format: in vivo, Beta vulgaris
Procedure, shortened: as §1

[13] = tested on: velvetleaf; experiment: Test B pre/postemergence velvetleaf; format: in vivo, Abutilon theophrasti
Procedure, shortened: as §1

[14] = tested on: wheat; experiment: Test B pre/postemergence wheat; format: in vivo, Triticum aestivum
Procedure, shortened: as §1

[15] = tested on: wild oat; experiment: Test B pre/postemergence wild oat; format: in vivo, Avena fatua
Procedure, shortened: as §1

[16] = tested on: purple nutsedge; experiment: Test B pre/postemergence purple nutsedge; format: in vivo, Cyperus rotundus
Procedure, shortened: as §1

[17] = tested on: rice; experiment: Test B flood test rice; format: in vivo, Oryza sativa
Procedure, shortened: (§2)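 Flood test on plants grown to the 2-leaf stage; treated plants kept in greenhouse twelve to sixteen days, then visually rated against controls on a 0 (no effect) to 10 (complete control) scale.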

[18] = tested on: smallflower flatsedge; experiment: Test B flood test smallflower flatsedge; format: in vivo, Cyperus difformis
Procedure, shortened: as §2

[19] = tested on: duck salad; experiment: Test B flood test duck salad; format: in vivo, Heteranthera limosa
Procedure, shortened: as §2

[20] = tested on: bamyardgrass; experiment: Test B flood test barnyardgrass; format: in vivo, Echinochloa crus-galli
Procedure, shortened: as §2

[21] = Preemergence, Rate 250 g/ha, scale of 0 to 10 where 0 is no effect and 10 is complete control
[22] = Preemergence, Rate 500 g/ha, scale of 0 to 10 where 0 is no effect and 10 is complete control
[23] = Rate 62 g/ha, Postemergence, scale 0 to 10, 0 no effect, 10 complete control
[24] = Rate 125 g/ha, Postemergence, scale of 0 to 10 where 0 is no effect and 10 is complete control
[25] = Rate 250 g/ha, Postemergence, scale of 0 to 10 where 0 is no effect and 10 is complete control
[26] = Rate 500 g/ha, Postemergence, scale 0 to 10, 0 no effect, 10 complete control
[27] = Rate 62 g/ha, headed Pre-emergence (flood test species), scale 0 to 10 (0 no effect, 10 complete control)
[28] = Rate 125 g/ha, Pre-emergence, flood test species, scale 0 to 10 where 0 is no effect and 10 is complete control
[29] = Rate 250 g/ha, Pre-emergence, flood-test species, scale 0 to 10, 0 is no effect, 10 is complete control
[30] = Rate 500 g/ha, Pre-emergence, flood test species, scale 0 to 10 (0 no effect, 10 complete control)

Compound: CCc1cccc(CC)c1-n1c(=O)on(C(=O)N(c2ccccc2)C(C)C)c1=O [Compound 305]
- Bedstraw plant response rating ([1]; Preemergence, Rate 250 g/ha): 0
- Bedstraw plant response rating ([1]; Preemergence, Rate 500 g/ha): 0
- Bedstraw plant response rating ([1]; Rate 125 g/ha, Postemergence): 0
- Blackgrass plant response rating (0 to 10 scale) ([2]; Preemergence, Rate 125 g/ha): 0
- Blackgrass plant response rating [2, 21]: 0
- Blackgrass plant response rating [2, 22]: 4
- Blackgrass plant response rating [2, 23]: 0
- Blackgrass plant response rating [2, 24]: 0
- Plant response rating, Blackgrass [2, 25]: 0
- Blackgrass plant response rating [2, 26]: 0
- B. signalgrass plant response rating (0 to 10 scale, 0 is no effect, 10 is complete control) ([3]; Preemergence, Rate 125 g/ha): 0
- B. signalgrass plant response rating [3, 21]: 0
- B. signalgrass plant response rating [3, 22]: 5
- B. signalgrass plant response rating [3, 23]: 0
- B. signalgrass plant response rating [3, 24]: 0
- Plant response rating, B. signalgrass [3, 25]: 0
- B. signalgrass plant response rating [3, 26]: 0
- Cocklebur plant response rating (0 to 10 scale) ([4]; Preemergence, Rate 125 g/ha): 0
- Cocklebur plant response rating [4, 21]: 0
- Cocklebur plant response rating [4, 22]: 0
- Cocklebur plant response rating [4, 23]: 0
- Cocklebur plant response rating [4, 24]: 0
- Plant response rating, Cocklebur [4, 25]: 0
- Cocklebur plant response rating [4, 26]: 0
- Corn plant response rating (0 to 10 scale) ([5]; Preemergence, Rate 125 g/ha): 0
- Corn plant response rating [5, 21]: 0
- Corn plant response rating [5, 22]: 0
- Corn plant response rating [5, 23]: 0
- Corn plant response rating [5, 24]: 0
- Plant response rating, Corn [5, 25]: 0
- Corn plant response rating [5, 26]: 0
- Crabgrass plant response rating (0 to 10 scale) ([6]; Preemergence, Rate 125 g/ha): 4
- Crabgrass plant response rating [6, 21]: 6
- Crabgrass plant response rating [6, 22]: 7
- Crabgrass plant response rating [6, 23]: 0
- Crabgrass plant response rating [6, 24]: 0
- Plant response rating, Crabgrass [6, 25]: 0
- Giant foxtail plant response rating (0 to 10 scale) ([7]; Preemergence, Rate 125 g/ha): 8
- Giant foxtail plant response rating [7, 21]: 9
- Giant foxtail plant response rating [7, 22]: 10
- Giant foxtail plant response rating [7, 23]: 0
- Giant foxtail plant response rating [7, 24]: 0
- Plant response rating, Giant foxtail [7, 25]: 0
- Morningglory plant response rating (0 to 10 scale) ([8]; Preemergence, Rate 125 g/ha): 0
- Morningglory plant response rating [8, 21]: 0
- Morningglory plant response rating [8, 22]: 0
- Morningglory plant response rating [8, 23]: 0
- Morningglory plant response rating [8, 24]: 0
- Plant response rating, Morningglory [8, 25]: 0
- Redroot pigweed plant response rating (0 to 10 scale) ([9]; Preemergence, Rate 125 g/ha): 0
- Redroot pigweed plant response rating [9, 21]: 3
- Redroot pigweed plant response rating [9, 22]: 7
- Redroot pigweed plant response rating [9, 23]: 3
- Redroot pigweed plant response rating [9, 24]: 3
- Plant response rating, Redroot pigweed [9, 25]: 4
- Rape plant response rating (0 to 10 scale) ([10]; Preemergence, Rate 125 g/ha): 0
- Rape plant response rating [10, 21]: 0
- Rape plant response rating [10, 22]: 0
- Rape plant response rating [10, 23]: 0
- Rape plant response rating [10, 24]: 0
- Plant response rating, Rape [10, 25]: 0
- Soybean plant response rating (0 to 10 scale) ([11]; Preemergence, Rate 125 g/ha): 0
- Soybean plant response rating [11, 21]: 0
- Soybean plant response rating [11, 22]: 0
- Soybean plant response rating [11, 23]: 4
- Soybean plant response rating [11, 24]: 4
- Plant response rating, Soybean [11, 25]: 4
- Sugarbeets plant response rating (0 to 10 scale) ([12]; Preemergence, Rate 125 g/ha): 0
- Sugarbeets plant response rating [12, 21]: 0
- Sugarbeets plant response rating [12, 22]: 3
- Sugarbeets plant response rating [12, 23]: 0
- Sugarbeets plant response rating [12, 24]: 0
- Plant response rating, Sugarbeets [12, 25]: 0
- Velvetleaf plant response rating (0 to 10 scale) ([13]; Preemergence, Rate 125 g/ha): 0
- Velvetleaf plant response rating [13, 21]: 0
- Velvetleaf plant response rating [13, 22]: 0
- Velvetleaf plant response rating [13, 23]: 0
- Velvetleaf plant response rating [13, 24]: 0
- Plant response rating, Velvetleaf [13, 25]: 0
- Wheat plant response rating (0 to 10 scale) ([14]; Preemergence, Rate 125 g/ha): 0
- Wheat plant response rating [14, 21]: 0
- Wheat plant response rating [14, 22]: 0
- Wheat plant response rating [14, 23]: 0
- Wheat plant response rating [14, 24]: 0
- Plant response rating, Wheat [14, 25]: 0
- Wild oats plant response rating (0 to 10 scale) ([15]; Preemergence, Rate 125 g/ha): 0
- Wild oats plant response rating [15, 21]: 0
- Wild oats plant response rating [15, 22]: 1
- Wild oats plant response rating [15, 23]: 0
- Wild oats plant response rating [15, 24]: 0
- Plant response rating, Wild oats [15, 25]: 0
- Nutsedge plant response rating (0 to 10 scale) ([16]; Preemergence, Rate 125 g/ha): 0
- Nutsedge plant response rating [16, 21]: 0
- Nutsedge plant response rating [16, 23]: 0
- Nutsedge plant response rating [16, 24]: 0
- Plant response rating, Nutsedge [16, 25]: 0
- Rice plant response rating [17, 27]: 0
- Rice plant response rating [17, 28]: 0
- Rice plant response rating [17, 29]: 0
- Rice plant response rating [17, 30]: 0
- S. Flatsedge plant response rating [18, 27]: 0
- S. Flatsedge plant response rating [18, 28]: 0
- S. Flatsedge plant response rating [18, 29]: 0
- S. Flatsedge plant response rating [18, 30]: 0
- Ducksalad plant response rating [19, 27]: 0
- Ducksalad plant response rating [19, 28]: 0
- Ducksalad plant response rating [19, 29]: 0
- Ducksalad plant response rating [19, 30]: 0
- Barnyardgrass plant response rating [20, 27]: 0
- Barnyardgrass plant response rating [20, 28]: 0
- Barnyardgrass plant response rating [20, 29]: 0
- Barnyardgrass plant response rating [20, 30]: 0
